Results published in article PMC8160210, “Single tryptophan Y160W mutant of homooligomeric E. coli purine nucleoside phosphorylase implies that dimers forming the hexamer are functionally not equivalent” (Scientific Reports, 2021).
Like-named read-outs stand apart in the source and are kept apart here.

Key:
Y160W PNP mutant = Y160W PNP mutant (Escherichia coli, UniProt P0ABP8, Y161W); experiment: Inhibition of m^7Guo phosphorolysis; assay type: biochemical, E. coli; design: made in house; host or cells: E. coli DH5α-T1
Description: All activity measurements and kinetic studies were done in 50 mM Hepes/HCl buffer pH 7.0 at 25 °C as previously described for the WT E. coli PNP and its active-site mutants, using direct spectrophotometric assay for adenosine, guanosine and 7-methylguanosine as substrates, and a coupled assay with xanthine oxidase in the case of inosine[13],[28],[29]. Activity measurements were performed for each protein sample, before and after each experiment as a control of the state of the protein.
To determine inhibition model and inhibition constant for formycin A, rate of phosphorolysis with m^7Guo as a variable substrate, at constant, 50 mM, phosphate concentration, was registered in the absence of the inhibitor and in the presence of two different concentrations of formycin. A global fitting to the whole data set was performed, using various models (competitive, uncompetitive, noncompetitive, mixed). As expected for the substrate analogue, competitive model described the data sufficiently well:3 v0c0=Vmax1c0/c0+KM1+ci/Ki where ci is inhibitor concentration. Kinetic data were analysed using the GraphPad Prism program (Intuitive Software for Science, San Diego, CA, USA).

WT E. coli PNP = target: T1, WT E. coli PNP (Escherichia coli, UniProt P0ABP8); experiment: Thermophoretic (MST) titrations with phosphate; settings: two-binding-site model, 25 °C
T1 construct: made in house
T1 sequence (P0ABP8 2-239 limits assumed): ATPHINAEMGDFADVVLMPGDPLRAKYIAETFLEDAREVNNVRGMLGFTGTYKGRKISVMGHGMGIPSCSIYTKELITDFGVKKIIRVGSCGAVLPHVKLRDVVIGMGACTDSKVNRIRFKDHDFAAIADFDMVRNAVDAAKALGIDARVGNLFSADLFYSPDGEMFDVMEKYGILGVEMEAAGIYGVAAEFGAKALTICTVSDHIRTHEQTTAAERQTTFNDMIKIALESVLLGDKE
Description: Measurements were performed with Monolith NT115 (NanoTemper). Enzyme was labelled with NT647 fluorescent dye (NanoTemper) according to the protocol provided by the manufacturer. Labelled proteins show fluorescence excitation and emission maxima of approximately 650 and 670 nm, respectively. The series of titrations were performed at a constant protein concentration. Both proteins (WT and mutant), and ligands were dissolved in 50 mM Tris/HCl pH 7.6 buffer, measurements were performed at 25 °C. […] In the pre-experiments, it was carefully checked for both proteins, WT and Y160W mutant whether any sign of aggregation or inactivation occurs, and if mutant behaviour is similar to that of the WT enzyme. […]
For experiments of the binary complex formation with phosphate, curves were measured at four different powers of the heating laser. Two to five titrations at each heating power were measured, and curves were averaged for a particular heating power. […] This is an area inaccessible in fluorescence titration due to the quenching of the protein fluorescence at such a high ionic strength of the solution. […]
Titration series were analysed globally, always starting from the simplest, one-binding-site model. […] For all tested models the Akaike information criterion[23] was also calculated. […]

Chain of Y160W PNP mutant (P0ABP8 2-239 Y161W): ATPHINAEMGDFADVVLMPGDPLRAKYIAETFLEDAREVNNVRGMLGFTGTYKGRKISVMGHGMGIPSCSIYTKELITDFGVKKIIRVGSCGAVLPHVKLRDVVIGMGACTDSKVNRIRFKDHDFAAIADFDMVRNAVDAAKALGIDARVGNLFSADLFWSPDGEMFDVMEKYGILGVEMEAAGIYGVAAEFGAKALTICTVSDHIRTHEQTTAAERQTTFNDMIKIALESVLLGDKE

Row | SMILES | Ki (Y160W PNP mutant) | Kd (WT E. coli PNP; 50 mM Tris/HCl pH 7.6, read-out: Kd1 ± SD) | Kd (WT E. coli PNP; 50 mM Tris/HCl pH 7.6, read-out: Kd3 ± SD)
1 | Nc1ncnc2c([C@@H]3O[C@H](CO)[C@@H](O)[C@H]3O)[nH]nc12 [FA, Formycin A] | 42 ± 4 µM |  | 
2 | O=P(O)(O)O [Pi, Orthophosphate] |  | 7 µM | 1640 µM
